Laboratory results reported in PMC3525729 (Bioorganic & medicinal chemistry letters, 2012).
Where a chain is given by its changes, count along the chain named. Each block holds one compound with its values, some of them ahead of it.

Tests used:
hM1 = target: T1, hM1 (Homo sapiens, UniProt P11229); conditions: screened as agonist
T1 sequence (P11229 1-460): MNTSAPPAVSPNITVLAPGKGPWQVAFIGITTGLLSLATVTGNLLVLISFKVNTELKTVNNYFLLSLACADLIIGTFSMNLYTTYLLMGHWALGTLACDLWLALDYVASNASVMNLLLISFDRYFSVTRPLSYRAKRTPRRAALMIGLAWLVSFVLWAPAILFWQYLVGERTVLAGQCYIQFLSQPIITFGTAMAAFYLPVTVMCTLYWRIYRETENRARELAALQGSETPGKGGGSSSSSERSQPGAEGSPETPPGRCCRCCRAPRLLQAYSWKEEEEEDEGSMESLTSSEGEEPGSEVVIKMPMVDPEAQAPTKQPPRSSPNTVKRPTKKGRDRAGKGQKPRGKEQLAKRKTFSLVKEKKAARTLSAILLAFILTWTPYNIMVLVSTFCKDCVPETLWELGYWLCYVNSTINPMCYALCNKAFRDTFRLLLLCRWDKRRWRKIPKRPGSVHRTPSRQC

rM2 = target: T2, rM2 (Rattus norvegicus, UniProt P10980); test: CRC screened as antagonist in presence of ACh EC80, rM2; assay type: cell-based; conditions: antagonist mode
T2 sequence (P10980 1-466): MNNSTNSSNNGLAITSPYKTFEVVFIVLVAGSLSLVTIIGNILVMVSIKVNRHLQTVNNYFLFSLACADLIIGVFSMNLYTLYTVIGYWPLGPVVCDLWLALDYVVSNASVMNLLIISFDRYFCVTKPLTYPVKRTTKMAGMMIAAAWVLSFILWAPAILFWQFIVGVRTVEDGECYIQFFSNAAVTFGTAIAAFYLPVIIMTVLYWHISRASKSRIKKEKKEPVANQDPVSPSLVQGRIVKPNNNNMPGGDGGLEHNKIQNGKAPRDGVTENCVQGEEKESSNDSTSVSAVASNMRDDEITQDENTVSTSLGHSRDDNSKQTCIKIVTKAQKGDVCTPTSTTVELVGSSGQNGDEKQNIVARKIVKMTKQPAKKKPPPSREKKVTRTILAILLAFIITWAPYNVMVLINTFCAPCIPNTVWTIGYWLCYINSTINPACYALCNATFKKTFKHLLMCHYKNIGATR

rM5 = target: T3, rM5 (Rattus norvegicus, UniProt P08911); test: CRC screened in agonist mode, rM5; assay type: cell-based
T3 sequence (P08911 1-531): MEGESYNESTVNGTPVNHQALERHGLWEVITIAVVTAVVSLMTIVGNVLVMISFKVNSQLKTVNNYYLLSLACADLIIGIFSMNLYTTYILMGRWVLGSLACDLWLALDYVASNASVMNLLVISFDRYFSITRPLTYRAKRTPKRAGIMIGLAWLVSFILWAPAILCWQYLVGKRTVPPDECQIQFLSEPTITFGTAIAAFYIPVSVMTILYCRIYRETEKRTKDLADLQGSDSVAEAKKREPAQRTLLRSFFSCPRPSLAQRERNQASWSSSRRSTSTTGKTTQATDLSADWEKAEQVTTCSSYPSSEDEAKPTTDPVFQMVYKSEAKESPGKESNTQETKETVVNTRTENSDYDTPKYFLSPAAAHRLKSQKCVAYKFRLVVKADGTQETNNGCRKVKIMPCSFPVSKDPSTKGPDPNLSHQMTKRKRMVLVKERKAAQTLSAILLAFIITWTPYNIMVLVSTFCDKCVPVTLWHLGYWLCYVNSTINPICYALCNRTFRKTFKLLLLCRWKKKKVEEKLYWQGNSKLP

rM3 = rM3 (Rattus norvegicus, UniProt P08483); test: CRC screened as antagonist in presence of ACh EC80, rM3; assay type: cell-based; conditions: antagonist mode
Sequence of rM3 (P08483 whole entry): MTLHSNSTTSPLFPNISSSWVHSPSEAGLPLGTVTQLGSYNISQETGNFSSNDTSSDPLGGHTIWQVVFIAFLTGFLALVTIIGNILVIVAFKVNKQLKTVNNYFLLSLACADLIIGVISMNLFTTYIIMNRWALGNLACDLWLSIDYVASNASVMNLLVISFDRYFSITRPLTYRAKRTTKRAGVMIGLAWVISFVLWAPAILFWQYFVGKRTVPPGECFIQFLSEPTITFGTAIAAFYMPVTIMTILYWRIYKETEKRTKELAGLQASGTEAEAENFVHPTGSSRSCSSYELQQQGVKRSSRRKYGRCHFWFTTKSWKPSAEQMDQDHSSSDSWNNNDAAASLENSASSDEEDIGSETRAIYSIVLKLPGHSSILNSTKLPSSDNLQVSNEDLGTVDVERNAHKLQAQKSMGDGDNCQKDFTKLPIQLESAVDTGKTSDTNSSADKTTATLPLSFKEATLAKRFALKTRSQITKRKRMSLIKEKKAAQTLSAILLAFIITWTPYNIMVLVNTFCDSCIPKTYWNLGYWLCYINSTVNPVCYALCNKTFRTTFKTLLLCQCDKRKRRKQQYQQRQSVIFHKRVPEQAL

hM2 = target: T4, hM2 (Homo sapiens, UniProt P08172); test: Human CRC screened as antagonist, hM2; assay type: cell-based; conditions: ACh EC80
T4 sequence (P08172 1-466): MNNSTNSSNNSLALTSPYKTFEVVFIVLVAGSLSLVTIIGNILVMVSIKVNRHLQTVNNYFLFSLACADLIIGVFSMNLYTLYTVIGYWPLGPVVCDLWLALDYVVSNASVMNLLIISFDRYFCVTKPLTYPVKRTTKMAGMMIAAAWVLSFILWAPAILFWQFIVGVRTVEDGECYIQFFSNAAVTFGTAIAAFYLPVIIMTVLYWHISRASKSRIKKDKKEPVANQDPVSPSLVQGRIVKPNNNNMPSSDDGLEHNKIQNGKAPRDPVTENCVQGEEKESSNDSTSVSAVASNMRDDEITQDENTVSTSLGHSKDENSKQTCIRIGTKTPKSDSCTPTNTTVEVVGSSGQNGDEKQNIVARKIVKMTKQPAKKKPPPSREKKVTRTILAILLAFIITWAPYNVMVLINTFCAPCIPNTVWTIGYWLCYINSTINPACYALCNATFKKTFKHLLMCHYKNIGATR

rM4 = target: T5, rM4 (Rattus norvegicus, UniProt P08485); test: CRC screened as antagonist in presence of ACh EC80, rM4; assay type: cell-based
T5 sequence (P08485 1-478): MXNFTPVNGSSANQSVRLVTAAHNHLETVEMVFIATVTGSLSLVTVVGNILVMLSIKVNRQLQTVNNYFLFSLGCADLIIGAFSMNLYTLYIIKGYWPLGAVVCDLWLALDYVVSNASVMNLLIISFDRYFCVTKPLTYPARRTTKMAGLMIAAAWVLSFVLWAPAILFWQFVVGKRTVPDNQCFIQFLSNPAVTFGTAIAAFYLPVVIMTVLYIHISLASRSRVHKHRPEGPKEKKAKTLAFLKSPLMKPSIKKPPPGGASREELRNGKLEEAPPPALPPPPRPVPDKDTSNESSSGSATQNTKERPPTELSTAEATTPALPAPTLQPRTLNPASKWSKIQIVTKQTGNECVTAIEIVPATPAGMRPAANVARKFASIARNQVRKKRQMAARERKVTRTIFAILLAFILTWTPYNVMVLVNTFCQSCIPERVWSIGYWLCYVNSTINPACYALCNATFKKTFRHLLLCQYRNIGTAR

[1] = cited from earlier work
M1 = target: T6, M1 (Rattus norvegicus, UniProt P08482); test: M1 agonist screen; assay type: cell-based; conditions: for M1 activation when screened as an agonist: agonist mode
T6 sequence (P08482 1-460): T1 sequence (P11229 1-460) with A5V, T254S, P309S, R320K, A337G, I413V

Rat M1 = target: T7, Rat M1 (Rattus norvegicus, UniProt P08482); test: CRC screened as antagonist in presence of ACh EC80, Rat M1; assay type: cell-based; conditions: antagonist mode
T7 sequence (P08482 1-460): T1 sequence (P11229 1-460) with A5V, T254S, P309S, R320K, A337G, I413V

M5 = target: T8, M5 (Homo sapiens, UniProt P08912); test: M5 antagonist screen; assay type: cell-based
T8 sequence (P08912 1-532): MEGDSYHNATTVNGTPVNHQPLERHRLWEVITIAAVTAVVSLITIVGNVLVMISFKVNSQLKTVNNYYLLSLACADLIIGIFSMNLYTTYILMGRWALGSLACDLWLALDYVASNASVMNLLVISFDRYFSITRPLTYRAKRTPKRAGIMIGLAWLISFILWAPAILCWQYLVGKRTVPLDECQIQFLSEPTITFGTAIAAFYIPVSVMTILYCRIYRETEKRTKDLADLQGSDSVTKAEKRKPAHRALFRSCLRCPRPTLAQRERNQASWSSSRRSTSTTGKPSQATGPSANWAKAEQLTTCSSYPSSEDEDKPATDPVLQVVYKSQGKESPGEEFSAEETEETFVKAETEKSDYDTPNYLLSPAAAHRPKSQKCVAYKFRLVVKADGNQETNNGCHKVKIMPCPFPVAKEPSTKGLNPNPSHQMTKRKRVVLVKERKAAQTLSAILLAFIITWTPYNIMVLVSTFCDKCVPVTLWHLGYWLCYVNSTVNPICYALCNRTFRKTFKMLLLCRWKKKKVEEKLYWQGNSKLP

M4 = target: T9, M4 (Homo sapiens, UniProt P08173); test: M4 antagonist screen; assay type: cell-based
T9 sequence (P08173 1-479): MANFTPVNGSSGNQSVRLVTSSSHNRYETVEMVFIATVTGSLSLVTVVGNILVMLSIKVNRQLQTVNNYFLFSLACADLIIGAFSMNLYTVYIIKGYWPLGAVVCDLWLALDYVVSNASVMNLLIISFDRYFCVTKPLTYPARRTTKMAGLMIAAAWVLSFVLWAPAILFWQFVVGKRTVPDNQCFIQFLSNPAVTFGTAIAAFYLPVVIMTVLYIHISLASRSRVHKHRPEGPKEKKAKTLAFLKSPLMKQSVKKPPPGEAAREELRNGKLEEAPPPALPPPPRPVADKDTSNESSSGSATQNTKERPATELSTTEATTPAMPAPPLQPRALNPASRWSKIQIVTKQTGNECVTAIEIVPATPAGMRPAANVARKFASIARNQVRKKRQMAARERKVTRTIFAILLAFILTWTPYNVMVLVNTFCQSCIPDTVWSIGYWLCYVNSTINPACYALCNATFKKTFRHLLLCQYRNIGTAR

SMILES: Cc1ccccc1CN1CCC(N2CCC(n3c(=O)[nH]c4ccccc43)CC2)CC1 [TBPB]
- hM1 % ACh Max (hM1): 40 % ACh Max
- rM2 pIC50 (rM2): 5.89
- EC50 (rM5): > 30 µM
- rM3 pIC50 (rM3): 5.26
- hM2 pIC50 (hM2): 5.46

SMILES: Cc1ccccc1CN1CCC(N2CCC(n3c(=O)[nH]c4ccccc43)C(F)C2)CC1 (stereo not shown) [compound 9]
- IC50 (rM4): > 10 µM
- rM4 % ACh Max (rM4; antagonist mode, ACh EC80): 26.6±3.4 % ACh Max
- rM4 pIC50 (rM4; antagonist mode, ACh EC80): 5.29±0.09
- pKa of the central piperidine nitrogen atom [1]: 9.4
- M1 activation when screened as an agonist (M1): neither 9 nor 10 elicited M1 activation

- Rat M1 % ACh Max (Rat M1): −1.07±1.3 % ACh Max
- Rat M1 pIC50 (Rat M1): 5.20±0.04
- M1 activation when screened as an agonist (M1): neither 9 nor 10 elicited M1 activation
SMILES: Cc1ccccc1CN1CCC(N2CC3CC(n4c(=O)[nH]c5ccccc54)CC3C2)CC1 (stereo not shown) [compound 10]

- M1 pEC50 (M1): 5.69±0.08
SMILES: CCOC(=O)N1CCC(N2CCC[C@@H](NC(=O)c3cccc(Br)c3)C2)CC1 [compound 14]

- IC50 (M5): > 10 µM
- IC50 (M4): > 10 µM
SMILES: CCOC(=O)N1CCC(N2CCC[C@@H](NC(=O)c3ccc(C(F)(F)F)nc3)C2)CC1 [compound 16]
